Measurements as given in ChEMBL document CHEMBL1201862, “PubChem BioAssay data set” (2004).
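48-hour exposure; five concentrations; linearly interpolated endpoints. Abbreviation: GI50, concentration required for 50% inhibition of growth.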 Calls of active or inactive are those of the source. Cut-off read from the data, not from the text of the source: active = GI50 up to about 1.1 µM and inactive = higher.

Assays:
Test in all cases: growth of human tumour cells (NCI), 48 h
[1] = tested on: MDA-MB-435
[2] = tested on: OVCAR-8
[3] = tested on: BT-549
[4] = tested on: UACC-62
[5] = tested on: OVCAR-5
[6] = tested on: EKVX
[7] = tested on: SK-MEL-2
[8] = tested on: MDA-MB-231
[9] = tested on: PC-3
[10] = tested on: CAKI-1
[11] = tested on: Hs-578T
[12] = tested on: LOX IMVI
[13] = tested on: MOLT-4
[14] = tested on: DU-145
[15] = tested on: DMS-273
[16] = tested on: DMS-114
[17] = tested on: KM-20L2
[18] = tested on: SNB-78
[19] = tested on: XF498
[20] = tested on: M19-MEL

SC1=Nc2ccccc2-c2nc(-c3ccccc3)cc(-c3ccc(Br)cc3)c2C1
GI50 [1]: 6.73 µM (inactive)
GI50 [2]: 1.1 µM (active)
GI50 [3]: 5.53 µM (inactive)
GI50 [4]: 2.26 µM (inactive)
GI50 [5]: 2.81 µM (inactive)
GI50 [6]: 1.33 µM (inactive)
GI50 [7]: 6.47 µM (inactive)
GI50 [8]: 1.44 µM (inactive)
GI50 [9]: 6.44 µM (inactive)
GI50 [10]: 1.5 µM (inactive)
GI50 [11]: 0.891 µM (active)
GI50 [12]: 2.99 µM (inactive)
GI50 [13]: 18.2 µM (inactive)
GI50 [14]: 3.48 µM (inactive)

C[C@@H]1CC[C@H]2[C@H]1[C@H]1[C@@H](CC[C@]2(C)N=C=S)C1(C)C
GI50 [1]: 24.8 µM (inactive)
GI50 [2]: 41.7 µM (inactive)
GI50 [3]: 18.7 µM (inactive)
GI50 [4]: 21.8 µM (inactive)
GI50 [5]: 28.3 µM (inactive)
GI50 [7]: 22.8 µM (inactive)
GI50 [8]: 30.1 µM (inactive)
GI50 [9]: 26.7 µM (inactive)
GI50 [10]: 37.8 µM (inactive)
GI50 [11]: 48.1 µM (inactive)
GI50 [12]: 59.4 µM (inactive)
GI50 [13]: 13.8 µM (inactive)
GI50 [14]: 23.4 µM (inactive)

N#C[C@H](OC1OC(COC2OC(CO)C(O)C(O)C2O)C(O)C(O)C1O)c1ccccc1 (stereo not given in full)
GI50 [2]: > 250 µM (inactive)
GI50 [4]: 247 µM (inactive)
GI50 [5]: > 250 µM (inactive)
GI50 [6]: > 250 µM (inactive)
GI50 [15]: > 250 µM (inactive)
GI50 [7]: > 250 µM (inactive)
GI50 [16]: > 250 µM (inactive)
GI50 [17]: > 250 µM (inactive)
GI50 [10]: > 250 µM (inactive)
GI50 [12]: > 195 µM (inactive)
GI50 [18]: 228 µM (inactive)
GI50 [19]: 23.4 µM (inactive)
GI50 [13]: 158 µM (inactive)
GI50 [20]: > 250 µM (inactive)

CCCCCCCCCCCCCC(=O)OC1C(O)C(CO)OC(OC)C1NC(=O)N(CCCl)N=O (stereo not given)
GI50 [2]: 43.6 µM (inactive)
GI50 [4]: 5.06 µM (inactive)
GI50 [5]: > 100 µM (inactive)
GI50 [15]: 71.1 µM (inactive)
GI50 [7]: > 100 µM (inactive)
GI50 [17]: > 100 µM (inactive)
GI50 [10]: > 100 µM (inactive)
GI50 [12]: 22.5 µM (inactive)
GI50 [19]: 48.9 µM (inactive)
GI50 [13]: 17.3 µM (inactive)
GI50 [20]: > 100 µM (inactive)

Cc1ccc(NC(=O)OCC(COc2ccc(Cl)cc2)OC(=O)Nc2ccc(C)cc2)cc1 (stereo not given)
GI50 [2]: 81.3 µM (inactive)
GI50 [4]: 19.1 µM (inactive)
GI50 [5]: 27.9 µM (inactive)
GI50 [6]: 70.3 µM (inactive)
GI50 [15]: 15.8 µM (inactive)
GI50 [7]: 15 µM (inactive)
GI50 [16]: 17.3 µM (inactive)
GI50 [17]: 36.7 µM (inactive)
GI50 [10]: 15.7 µM (inactive)
GI50 [12]: 21.2 µM (inactive)
GI50 [18]: 23.2 µM (inactive)
GI50 [19]: 26.4 µM (inactive)
GI50 [13]: 16.2 µM (inactive)
GI50 [20]: 22.4 µM (inactive)

N#Cc1ccc(C2Oc3ccc(Cl)cc3C=C2[N+](=O)[O-])cc1 (stereo not given)
GI50 [1]: 1.73 µM (inactive)
GI50 [2]: > 10 µM (inactive)
GI50 [3]: 0.581 µM (active)
GI50 [4]: 1.63 µM (inactive)
GI50 [5]: 2.09 µM (inactive)
GI50 [6]: 1.75 µM (inactive)
GI50 [7]: 1.74 µM (inactive)
GI50 [8]: 1.8 µM (inactive)
GI50 [9]: 1.38 µM (inactive)
GI50 [10]: 1.52 µM (inactive)
GI50 [11]: 6.32 µM (inactive)
GI50 [12]: 1.04 µM (active)
GI50 [13]: 0.906 µM (active)
GI50 [14]: 2.34 µM (inactive)

O=C1CCC23CC(C=CC=C12)n1c(=O)n(-c2ccccc2)c(=O)n13 (stereo not given)
GI50 [2]: > 100 µM (inactive)
GI50 [4]: > 100 µM (inactive)
GI50 [5]: > 100 µM (inactive)
GI50 [6]: > 100 µM (inactive)
GI50 [15]: 71.4 µM (inactive)
GI50 [7]: > 100 µM (inactive)
GI50 [16]: 37.3 µM (inactive)
GI50 [10]: > 50.6 µM (inactive)
GI50 [12]: > 72.1 µM (inactive)
GI50 [18]: > 59.2 µM (inactive)
GI50 [19]: > 100 µM (inactive)
GI50 [13]: 49.7 µM (inactive)
GI50 [20]: > 100 µM (inactive)

Cc1cc2c(cc1C)[n+]([O-])c(C#N)c(Cl)[n+]2[O-]
GI50 [1]: 21 µM (inactive)
GI50 [2]: 15.3 µM (inactive)
GI50 [3]: 15.6 µM (inactive)
GI50 [4]: 11.7 µM (inactive)
GI50 [5]: 12.7 µM (inactive)
GI50 [6]: 6.59 µM (inactive)
GI50 [7]: 17.4 µM (inactive)
GI50 [8]: 19.1 µM (inactive)
GI50 [9]: 13.2 µM (inactive)
GI50 [10]: 6.46 µM (inactive)
GI50 [11]: 15.9 µM (inactive)
GI50 [12]: 12.1 µM (inactive)
GI50 [13]: 5.05 µM (inactive)
GI50 [14]: 14.9 µM (inactive)

CC(C)=CCC/C(C)=C/C=C/C(C)=C/C1C[C@@]2(C(O)O1)[C@H](CCCO)/C(=C(/C)C=O)CC[C@]2(C)O (stereo not given in full)
GI50 [2]: 22 µM (inactive)
GI50 [5]: 40.8 µM (inactive)
GI50 [6]: 11.9 µM (inactive)
GI50 [15]: 1.39 µM (inactive)
GI50 [7]: 18.6 µM (inactive)
GI50 [16]: 13.3 µM (inactive)
GI50 [17]: 15.3 µM (inactive)
GI50 [10]: 11.6 µM (inactive)
GI50 [12]: 11.7 µM (inactive)
GI50 [18]: 20.5 µM (inactive)
GI50 [19]: 18.3 µM (inactive)
GI50 [13]: 4.95 µM (inactive)
GI50 [20]: 16.2 µM (inactive)
